Patent publication US8952024B2, “Herbicidal pyrimidone derivatives” (E I du Pont de Nemours and Company, priority 2009, dated 2015)

Columns and labels:
Type in all cases: in vivo
[1] = system: goosegrass (Eleusine indica); test: Test B pre-/postemergence plant response; conditions: Preemergence, 62 g ai/ha; scale 0 to 100, 0 no effect, 100 complete control
[2] = system: pigweed (Amaranthus retroflexus); test: Test B pre-/postemergence plant response
Method in brief: (§1)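 Steps: sow seed in loam–sand soil and spray preemergence, or grow plants in peat-based medium to 1–4 leaves (2–18 cm) and spray postemergence; formulation is non-phytotoxic solvent plus surfactant; hold in greenhouse 13–15 days; score visually vs controls, 0 = no effect, 100 = complete control.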

[3] = system: nightshade (eastern black nightshade, Solanum ptycanthum); test: Test B pre-/postemergence plant response; conditions: Preemergence
Method in brief: as §1

[4] = system: galium (catchweed bedstraw, Galium aparine); test: Test B pre-/postemergence plant response; conditions: Preemergence
Method in brief: as §1

wild oat (Avena fatua) = test: Test B pre-/postemergence plant response
Method in brief: as §1

[5] = system: sunflower (common oilseed sunflower, Helianthus annuus); test: Test B pre-/postemergence plant response; conditions: Preemergence
Method in brief: as §1

rice (Oryza sativa) = test: Test B flooded paddy test
Method in brief: (§2)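 Post-flood paddy application: compounds are introduced into water 3 cm deep over the soil, reaching plants at the 2-leaf stage. The water level is maintained, and after 13–15 days under greenhouse conditions, response is judged by eye relative to controls, where 100 means complete control.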

[6] = system: ducksalad (Heteranthera limosa); test: Test B flooded paddy test
Method in brief: as §2

[7] = system: barnyardgrass (Echinochloa crus-galli); test: Test B flooded paddy test
Method in brief: as §2

[8] = system: umbrella sedge (Cyperus difformis); test: Test B flooded paddy test
Method in brief: as §2

[9] = system: windgrass (Apera spica-venti); test: Test B postemergence plant response; conditions: Postemergence; for Plant response rating, Windgrass: scale 0 (no effect) to 100 (complete control)
Method in brief: (§3)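 Plants grown in peat/vermiculite medium were sprayed postemergence at 2–18 cm height (1- to 4-leaf stage). After 13–15 days in the greenhouse, response was rated visually against untreated controls on a 0–100 scale (0 no effect, 100 complete control).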

[10] = system: winter barley (Hordeum vulgare); test: Test B postemergence plant response; conditions: Postemergence
Method in brief: as §3

[11] = system: canarygrass (Phalaris minor); test: Test B postemergence plant response; conditions: Postemergence
Method in brief: as §3

[12] = system: chickweed (Stellaria media); test: Test B postemergence plant response; conditions: Postemergence
Method in brief: as §3

[13] = 250 g ai/ha, Preemergence, 0 to 100 scale
[14] = Postemergence, 62 g ai/ha, scale 0 (no effect) to 100 (complete control), 13 to 15 days
[15] = Postemergence, 125 g ai/ha, visual rating after 13 to 15 days, scale 0 (no effect) to 100 (complete control)
[16] = Postemergence, 250 g ai/ha, scale 0 to 100
[17] = Preemergence, 31 g ai/ha, scale 0 to 100 (0 no effect, 100 complete control)
[18] = Preemergence, 62 g ai/ha, scale 0 to 100, 0 no effect, 100 complete control
[19] = Preemergence, 125 g ai/ha, 0 to 100 scale
[20] = 31 g ai/ha, scale 0 to 100 (0 no effect, 100 complete control)
[21] = 62 g ai/ha, scale 0 to 100, 0 no effect, 100 complete control
[22] = 250 g ai/ha, flooded paddy test, visual rating on 0 to 100 scale (0 no effect, 100 complete control) after 13 to 15 days
[23] = Flood (flooded paddy test), 62 g ai/ha, scale 0 to 100, 0 is no effect, 100 is complete control, 13 to 15 days
[24] = 62 g ai/ha, scale 0 (no effect) to 100 (complete control), 13 to 15 days
[25] = 125 g ai/ha, visual rating after 13 to 15 days, scale 0 (no effect) to 100 (complete control)

Cc1ccc(C)c(-n2c(-c3ccccc3)ncc(C(=O)C3=C(O)CCCC3=O)c2=O)c1 [Compound 29]
Plant response rating, Goosegrass [1]: 100 | Plant response rating, Pigweed [2, 13]: 100 | Plant response rating, Pigweed [2, 14]: 65 | Plant response rating, Pigweed [2, 15]: 80 | Pigweed plant response rating [2, 16]: 85 | Plant response rating, Pigweed [2, 17]: 100 | Plant response rating, Pigweed [2, 18]: 100 | Pigweed plant response rating [2, 19]: 100 | Plant response rating, Nightshade ([3]; 250 g ai/ha, 0 to 100 scale): 100 | Plant response rating, Nightshade [3, 20]: 90 | Plant response rating, Nightshade [3, 21]: 90 | Nightshade plant response rating ([3]; 125 g ai/ha, 0 to 100 scale): 100 | Plant response rating, Galium ([4]; 250 g ai/ha, 0 to 100 scale): 100 | Plant response rating, Galium [4, 20]: 50 | Plant response rating, Galium [4, 21]: 80 | Galium plant response rating ([4]; 125 g ai/ha, 0 to 100 scale): 98 | Plant response rating, Oat, Wild (wild oat (Avena fatua); [13]): 50 | Plant response rating, Oat, Wild (wild oat (Avena fatua); [14]): 50 | Plant response rating, Oat, Wild (wild oat (Avena fatua); [15]): 60 | Oat, Wild plant response rating (wild oat (Avena fatua); [16]): 80 | Plant response rating, Oat, Wild (wild oat (Avena fatua); [17]): 0 | Plant response rating, Oat, Wild (wild oat (Avena fatua); [18]): 0 | Oat, Wild plant response rating (wild oat (Avena fatua); [19]): 45 | Plant response rating, Sunflower ([5]; 250 g ai/ha, 0 to 100 scale): 100 | Plant response rating, Sunflower [5, 20]: 75 | Plant response rating, Sunflower [5, 21]: 85 | Sunflower plant response rating ([5]; 125 g ai/ha, 0 to 100 scale): 90 | Plant response rating, Flood, Rice (rice (Oryza sativa); [22]): 0 | Plant response rating, Rice (rice (Oryza sativa); [23]): 0 | Plant response rating, Flood, Ducksalad [6, 22]: 85 | Plant response rating, Ducksalad [6, 23]: 70 | Plant response rating, Flood, Barnyardgrass [7, 22]: 30 | Plant response rating, Barnyardgrass [7, 23]: 0 | Plant response rating, Flood, Sedge, Umbrella [8, 22]: 80 | Plant response rating, Sedge, Umbrella [8, 23]: 70 | Plant response rating, Windgrass ([9]; 62 g ai/ha, 13 to 15 days): 10 | Plant response rating, Windgrass ([9]; 125 g ai/ha, visual rating after 13 to 15 days): 30 | Windgrass plant response rating ([9]; 250 g ai/ha, scale 0 to 100): 50 | Plant response rating, Barley [10, 20]: 0 | Plant response rating, Barley [10, 24]: 0 | Plant response rating, Barley [10, 25]: 0 | Barley plant response rating ([10]; 250 g ai/ha, scale 0 to 100): 0 | Plant response rating, Canarygrass [11, 20]: 10 | Plant response rating, Canarygrass [11, 24]: 20 | Plant response rating, Canarygrass [11, 25]: 40 | Canarygrass plant response rating ([11]; 250 g ai/ha, scale 0 to 100): 40 | Plant response rating, Chickweed [12, 20]: 50 | Plant response rating, Chickweed [12, 24]: 50 | Plant response rating, Chickweed [12, 25]: 50 | Chickweed plant response rating ([12]; 250 g ai/ha, scale 0 to 100): 85
